Article PMC3722296 (PLoS ONE, 2013)
“Also recorded” adds a separate entry of the source. Where no end group is shown, it is not given here.

Legend:
S. aureus S1 = test: Antibiotic susceptibility, agar disc diffusion; format: cell-based, Staphylococcus aureus; conditions: agar disc diffusion method
Procedure: (§1) S1 was isolated from the blood of a patient and S2 was isolated from the sputum of a neonate. After isolation and identification, S. aureus strains were assessed for their susceptibility to various antibiotics, using the agar disc diffusion method. S1 was found Methicillin resistant (MRSA) and is also resistant to Amoxicillin, Oxacillin, Amikacin, Tobramycin, Fluoroquinolones, Erythromycin and Clindamycin. However, it was susceptible to Gentamicin, Synercid, Co-trimoxazole, Rifampicin, Fusidic acid, Vancomycin, Teicoplanin and Linezolid.

S. aureus S2 = test: Antibiotic susceptibility, agar disc diffusion; format: cell-based, Staphylococcus aureus; conditions: agar disc diffusion method
Procedure: as §1

S. aureus = test: Antibacterial activity against S. aureus, (strains together or not specified); format: cell-based, Staphylococcus aureus
Procedure: (§2) Different S. aureus strains described above were first pre-cultured aerobically at 37°C for 20 h in a Mueller-Hinton-Broth (MHB) medium, pH 7.3 (Difco Laboratories, Detroit, MI). Bacteria were suspended at absorbance of 0.001 at 620 nm in the MHB medium. […] Ten µl final volumes (10–200 µg/mL) of synthetic peptides (LL-37, bCAT, hCAT and bCTL) were incubated in microtitration plates with 90 µl of a mid-logarithmic phase culture of bacteria, with a starting absorbance of 0.001 at 620 nm. In the initial inoculi, bacteria were quantified by the agar plate spreading method which was 5×10^5 colony forming units (CFU)/mL. Tetracycline (10 mg/L) and Cefotaxime (0.1 mg/L) were used as positive controls. Microbial growth was assessed by the increase of absorbance after 24 h incubation at 37°C., [29] The A620 nm value of control cultures growing in the absence of peptide and antibiotics was defined as 100% growth. A620 nm zero with the antibiotics (Tetracycline and Cefotaxime) was taken as 100% inhibition. Absence of bacterial growth was verified by agar plate spreading. Each assay was performed in triplicates.

[1] = S. aureus ATCC25923 culture supernatant (S25923), MHB medium, filtered; conditions: S. aureus ATCC25923, 37°C, up to 24 h
[2] = S. aureus ATCC25923 culture supernatant with protease inhibitors (Pi+S25923); conditions: S. aureus ATCC25923, 37°C, up to 24 h
[3] = S. aureus S2 culture supernatant with protease inhibitors (Pi+S2); conditions: S. aureus S2 (MSSA), 37°C, up to 24 h
[4] = S. aureus S1 (MRSA) culture supernatant, MHB medium, filtered; conditions: 37°C, up to 24 h
[5] = S. aureus S1 culture supernatant with protease inhibitors (Pi+S1); conditions: S. aureus S1 (MRSA), 37°C, up to 24 h
[6] = S. aureus ATCC49775 culture supernatant (S49775), MHB medium, filtered; conditions: S. aureus ATCC49775, 37°C, up to 24 h
[7] = S. aureus ATCC49775 culture supernatant with protease inhibitors (Pi+S49775); conditions: S. aureus ATCC49775, 37°C, up to 24 h
[8] = S. aureus S2 (MSSA) culture supernatant, MHB medium, filtered; conditions: 37°C, up to 24 h
human erythrocytes = conditions: cited from earlier work
Excerpt: Due to continuous resistance development by S. aureus, the interest for natural AMPs is increasing because some of them display potent antibacterial activity. However, secondary reactions such as hemolytic activity, [36] limit their use as systemic anti-infective drugs. Until recently, no such reaction was reported for the antimicrobial Cgs-derived peptides in the literature. Several CgA-derived peptides were previously characterized to display antimicrobial properties, [9] however, data concerning killing of S. aureus is not reported. CAT was previously reported, to be active against diff ...

[9] = system: staphylococcal proteases released into bacterial supernatants; conditions: 37°C, 24 h; for degradation by four strain supernatants in presence of protease inhibitors: protease inhibitor cocktail + 100 µM 1–10 phenanthroline; for degradation by culture supernatant of S2 / degradation by culture supernatants S49775, S25923 and S1: no protease inhibitors, RP-HPLC 214 nm, sequencing, MALDI-TOF, triplicate wells
Procedure: S. aureus strains were precultured and plated on the agar plates and cultivated for 24 h at 37°C. After incubation, one colony per isolate was transferred to 10 mL of the MHB medium and incubated at 37°C for about 30 h to late stationary growth phase. After incubation, cultures were centrifuged at 10,000×g for 15 min and supernatants were filtered using a 0.22 µM Millex®-GV (Millipore, Carrigtwohill, Ireland) to eliminate bacteria. The supernatants were stored at −20°C until further use. In order to check sterility, 1 mL of each supernatant was incubated at 37°C for 48 h. Absence of a colony was interpreted as lack of viable bacteria.
(§4) Triplicate wells were treated for each concentration of peptide. In parallel, several controls were performed: with and without peptides in MHB medium.
For which, protease inhibitor cocktail (complete protease inhibitors except metalloproteases) (Roche Diagnostic GmbH, Mannheim, Germany) supplemented with 100 µM of 1–10 phenanthroline (metalloprotease inhibitor) (Sigma Aldrich GmbH, Steinheim, Germany) was added to bacterial supernatants before the addition of synthetic peptides. The whole suspension was incubated at 37°C for 24 h prior to being analyzed by RP-HPLC.
(§5) The synthetic peptides treated with bacterial supernatants and different controls including culture medium, bacterial supernatants, and synthetic peptides were separated using a Dionex HPLC system (Ultimate 3000; Sunnyvale, CA USA) on a Nucleosil reverse-phase 300–5C18-column (4×250 mm; particle size, 5 µm; porosity, 300 Å) (Macherey Nagel Hoerdt, France). Absorbance was monitored at 214 nm, and the solvent system consisted of 0.1% (v/v) TFA in water (solvent A) and 0.09% (v/v) TFA in 70% (v/v) acetonitrile-water (solvent B). Elution was performed at a flow rate of 700 µL/min, with the gradient as indicated on chromatograms. Fractions were collected with one min time interval. They were subsequently concentrated by evaporation by using a speed-vac, however not allowing them to dry completely.
The N-terminal sequence of purified peptides was determined by automatic Edman degradation analysis on a Procise microsequencer (Applied Biosystems, Courtaboeuf, France). Samples purified by HPLC were loaded on polybrene-treated glass-fiber filters. Phenylthiohydantoin-amino acids (Pth-Xaa) were identified by chromatography on a C18 column (PTH C-18, 2.1 mm×200 mm).
Mass determination was carried out on a Brucker BIFLEX™ Matrix-Assisted Laser Desorption Ionization – Time-Of-Flight mass spectrometer (MALDI-TOF) (equipped with the high resolution optics (SCOUT™) with X–Y multi-sample probe, a gridless reflector and with the HIMAS™ linear detector). With a maximum accelerating potential of 30 kV, the system can be operated either in linear or the reflective mode. Ionization was carried out with a 337-nm beam from a nitrogen laser with a repetition rate of 3 Hz. The output signal from the detector was digitized at a sampling rate of 250 MHz in linear mode and 500 MHz in reflector mode using a 1 GHz digital oscilloscope (Lecroy model). Brucker supplied software hosted in Sun sparcworkstation was used for data processing and the instrumental control. […] These studies were realized using the matrix α-cyano-4-hydroxycinnamic acid, obtained from Sigma, and prepared as a saturated solution in acetone. A total of 1–2 µl of the sample matrix aliquot solution was deposited on the probe and dried by ambient air. A thin layer matrix crystal was obtained after rapid spreading and evaporation. […] A micromolar analyte solution was applied to the matrix and allowed to dry under moderate vacuum. The whole preparation was washed by 1 μl of trifluoroacetic acid (0.5%) aqueous solution. This cleaning procedure helps remove remaining alkaline cations and often leads to an increase in sensitivity.

S. aureus S2 (MSSA) = format: cell-based, Staphylococcus aureus; conditions: S2, 24 h, pH 7.3
Procedure: as §1, §2
(§3) The MIC values (µg/mL) are reported as means of three independent experiments. To determine significance, between different peptides (rows) and bacterial strains (columns), one way ANOVA was used. Overall significance and correlation was evaluated by 4×4 factorial ANOVA for independent samples. Significance was accepted at p≤0.05.

S. aureus S1 (MRSA) = format: cell-based, Staphylococcus aureus; conditions: S1, 24 h, pH 7.3
Procedure: as §1, §2, §3

S. aureus ATCC49775 = format: cell-based, Staphylococcus aureus; conditions: ATCC49775, 24 h, pH 7.3
Procedure: as §2, §3

S. aureus ATCC25923 = format: cell-based, Staphylococcus aureus; conditions: ATCC25923, 24 h, pH 7.3
Procedure: as §2, §3

MHB medium = conditions: 37°C, up to 24 h
[10] = MHB medium without supernatant, 37°C, 24 h; RP-HPLC
Procedure: as §4, §5

## NCC[C@H](O)C(=O)N[C@@H]1C[C@H](N)[C@@H](O[C@H]2O[C@H](CN)[C@@H](O)[C@H](O)[C@H]2O)[C@H](O)[C@H]1O[C@H]1O[C@H](CO)[C@@H](O)[C@H](N)[C@H]1O [Amikacin]
S. aureus S1
  susceptibility of strain S1: resistant

## CC1(C)S[C@@H]2[C@H](NC(=O)[C@H](N)c3ccc(O)cc3)C(=O)N2[C@H]1C(=O)O [Amoxicillin]
S. aureus S1
  susceptibility of strain S1: resistant

## CCC[C@@H]1C[C@@H](C(=O)N[C@@H]([C@H]2O[C@H](SC)[C@H](O)[C@@H](O)[C@H]2O)[C@H](C)Cl)N(C)C1 [Clindamycin]
S. aureus S1
  susceptibility of strain S1: resistant

## CC[C@H]1OC(=O)[C@H](C)[C@@H](O[C@H]2C[C@@](C)(OC)[C@@H](O)[C@H](C)O2)[C@H](C)[C@@H](O[C@@H]2O[C@H](C)C[C@H](N(C)C)[C@H]2O)[C@](C)(O)C[C@@H](C)C(=O)[C@H](C)[C@@H](O)[C@]1(C)O [Erythromycin]
S. aureus S1
  susceptibility of strain S1: resistant

## CC(=O)O[C@H]1C[C@@]2(C)[C@@H](C[C@@H](O)[C@H]3[C@@]4(C)CC[C@@H](O)[C@@H](C)[C@@H]4CC[C@@]32C)/C1=C(\CCC=C(C)C)C(=O)O [Fusidic acid]
S. aureus S1
  susceptibility of strain S1: susceptible

## CNC(C)C1CCC(N)C(OC2C(N)CC(N)C(OC3OCC(C)(O)C(NC)C3O)C2O)O1 (centres unmarked) [Gentamicin]
S. aureus S1
  susceptibility of strain S1: susceptible

## CC(=O)NC[C@H]1CN(c2ccc(N3CCOCC3)c(F)c2)C(=O)O1 [Linezolid]
S. aureus S1
  susceptibility of strain S1: susceptible

## COc1cccc(OC)c1C(=O)N[C@@H]1C(=O)N2[C@@H]1SC(C)(C)[C@@H]2C(=O)O [Methicillin]
S. aureus S1
  susceptibility of strain S1: resistant
S. aureus S2
  susceptibility of strain S2: susceptible

## Cc1onc(-c2ccccc2)c1C(=O)N[C@@H]1C(=O)N2[C@@H]1SC(C)(C)[C@@H]2C(=O)O [Oxacillin]
S. aureus S1
  susceptibility of strain S1: resistant

## CO[C@H]1/C=C/O[C@@]2(C)Oc3c(C)c(O)c4c(O)c(c(/C=N/N5CCN(C)CC5)c(O)c4c3C2=O)NC(=O)/C(C)=C\C=C\[C@H](C)[C@H](O)[C@@H](C)[C@@H](O)[C@@H](C)[C@H](OC(C)=O)[C@@H]1C [Rifampicin]
S. aureus S1
  susceptibility of strain S1: susceptible

## NC[C@H]1O[C@H](O[C@H]2[C@H](O)[C@@H](O[C@H]3O[C@H](CO)[C@@H](O)[C@H](N)[C@H]3O)[C@H](N)C[C@@H]2N)[C@H](N)C[C@@H]1O [Tobramycin]
S. aureus S1
  susceptibility of strain S1: resistant

## CN[C@H](CC(C)C)C(=O)N[C@H]1C(=O)N[C@@H](CC(N)=O)C(=O)N[C@H]2C(=O)N[C@H]3C(=O)N[C@H](C(=O)N[C@H](C(=O)O)c4cc(O)cc(O)c4-c4cc3ccc4O)[C@H](O)c3ccc(c(Cl)c3)Oc3cc2cc(c3O[C@@H]2O[C@H](CO)[C@@H](O)[C@H](O)[C@H]2O[C@H]2C[C@](C)(N)[C@H](O)[C@H](C)O2)Oc2ccc(cc2Cl)[C@H]1O [Vancomycin]
S. aureus S1
  susceptibility of strain S1: susceptible

## Co-trimoxazole
S. aureus S1
  susceptibility of strain S1: susceptible

## FLE-RSMRLSFRARG [shorter peptide lacking the C-terminal end (YGFR) of CTL]
S. aureus; data not shown
  concentration at which antibacterial activities are displayed: 200 µg/mL

## FLE-RSMRLSFRARGYGFR [FLE-CTL, CTL derived peptide with a hydrophobic N-terminal end]
S. aureus; at 400 µg/mL, recent experiments
  antibacterial activity against S. aureus: inactive

## RSMRLSFRARGYGFR
[1]
  not cleaved: not degraded by any of the staphylococcal strains tested
[2]
  not cleaved: remains unaffected by S. aureus supernatants with or without protease inhibitors
[3]
  not cleaved: remains unaffected by S. aureus supernatants with or without protease inhibitors
[4]
  not cleaved: not degraded by any of the staphylococcal strains tested
[5]
  not cleaved: remains unaffected by S. aureus supernatants with or without protease inhibitors
[6]
  not cleaved: not degraded by any of the staphylococcal strains tested
[7]
  not cleaved: remains unaffected by S. aureus supernatants with or without protease inhibitors
[8]
  not cleaved: not degraded by any of the staphylococcal strains tested

## RSMRLSFRARGYGFR [bCTL, cateslytin]
S. aureus; across ATCC49775, ATCC25923, S1, S2
  MIC value against different strains of S. aureus: 37 to 45 µg/mL
Human erythrocytes
  hemolytic activity: not hemolytic
[9]; ATCC49775, ATCC25923, S1, S2 supernatants, peptide at MIC concentration, RP-HPLC
  degradation by any of the staphylococcal strains tested (four supernatants): not degraded
[9]; RP-HPLC
  degradation by four strain supernatants in presence of protease inhibitors: remains unaffected
S. aureus S2 (MSSA)
  MIC: 45 µg/mL
S. aureus S1 (MRSA)
  MIC: 37 µg/mL
S. aureus ATCC49775
  MIC: 37 µg/mL
S. aureus ATCC25923
  MIC: 40 µg/mL

## RSMRLSFRARGYGFRGPGLQL
[1]
  cleaved bond: L348-S349
[2]
  not cleaved: not cleaved by any of the four strain supernatants tested in presence of protease inhibitors
[3]
  not cleaved: not cleaved by any of the four strain supernatants tested in presence of protease inhibitors
[4]
  cleaved bond: L348-S349
[5]
  not cleaved: not cleaved by any of the four strain supernatants tested in presence of protease inhibitors
[6]
  cleaved bond: L348-S349
[7]
  not cleaved: not cleaved by any of the four strain supernatants tested in presence of protease inhibitors
MHB medium
  not cleaved: In MHB medium, bCAT was not processed
[8]
  cleaved bond: S349-F350; also recorded: G356-F357

## RSMRLSFRARGYGFRGPGLQL [bCAT, catestatin]
[10]
  processing in MHB medium: not processed
[9]; peptide at MIC concentration
  degradation by culture supernatant of S2: largely cleaved
  degradation by culture supernatants S49775, S25923 and S1: processed
[9]; RP-HPLC
  degradation by four strain supernatants in presence of protease inhibitors: not cleaved
S. aureus S2 (MSSA)
  MIC: 115 µg/mL
S. aureus S1 (MRSA)
  MIC: 100 µg/mL
S. aureus ATCC49775
  MIC: 100 µg/mL
S. aureus ATCC25923
  MIC: 100 µg/mL

## SSMKLSFRARAYGFRGPGPQL [hCAT, catestatin]
[10]
  processing in MHB medium: not cleaved
[9]; peptide at MIC concentration
  degradation by culture supernatant of S2: completely cleaved
  degradation by culture supernatants S49775, S25923 and S1: partially processed
S. aureus S2 (MSSA)
  MIC: 150 µg/mL
S. aureus S1 (MRSA)
  MIC: 130 µg/mL
S. aureus ATCC49775
  MIC: 125 µg/mL
S. aureus ATCC25923
  MIC: 135 µg/mL

## SSMKLSFRARGYGFRGPGPQL
[1]
  cleaved bond: L356-S357
[4]
  cleaved bond: L356-S357
[6]
  cleaved bond: L356-S357
MHB medium
  not cleaved: In presence of MHB medium, hCAT was not cleaved
[8]
  cleaved bond: G364-F365; also recorded: S357-F358

## Teicoplanin
S. aureus S1
  susceptibility of strain S1: susceptible
